In patent publication US9969771B2, “Tetrapeptide having effect of inhibiting VEGF-induced angiogenesis and use thereof” (AVIXGEN INC., priority 2015, dated 2018):
Entries after “also recorded” stand apart in the source; their conditions may differ. Where a SMILES comes first, the peptide text is derived from it.

How the values were obtained:
HUVECs [1] = experiment: VEGF-induced HUVEC proliferation, [3H]-thymidine incorporation assay; format: cell-based, human
Procedure: Human umbilical vein endothelial cells (HUVECs) were cultured in M199 medium, and during experiments, the cells were always used at passages 2 to 7. Meanwhile, mouse melanoma cells (B16F1 and B16F10) and human colorectal tumor cells (HCT116) were cultured in RPMI media supplemented with 10% FBS, 1 mM sodium pyruvate, 10 mM 4-(2-hydroxyethyl)-1-piperazineethanesulfonic acid and 100 U/ml penicillin-streptomycin, and human multiple myeloma cells (IM-9 and RPMI 8226) were cultured in RPMI-1640 media. All of the cells were cultured at 37° C. with 5% CO2 in a humidified incubator.
Angiogenic activity was determined by measuring cell proliferation, migration and tube formation. HUVEC proliferation was analyzed by a [3H]-thymidine incorporation assay. The HUVECs were seeded in a 24-well plate coated with gelatin at a density of 2×10^4 cells/well. […] […] […] 3H-labeled polymer DNA was evaluated with a liquid scintillation counter.

HUVECs [2] = experiment: HUVEC tube formation on Matrigel; format: cell-based, human
Procedure: Tube formation of HUVECs was examined using growth factor-reduced Matrigel (hereinafter, referred to as “Matrigel”). 250 μl of Matrigel (10 mg protein/ml) was placed in a 24-well plate to allow polymerization for 30 minutes at 37° C. […] The tube formation was examined under a reverse phase-contrast microscope, and visualized with Image-Pro Plus version 4.5 (Media Cybernetics, San Diego, Calif.). Five samples were randomly selected to measure and quantify a length of the tube formed above.

NO production in HUVECs = NO production in HUVECs (DAF-FM diacetate); format: cell-based, human; settings: peptide 0.15 nM, VEGF 10 ng/ml
Procedure: An NO amount produced in HUVECs was evaluated with DAF-FM diacetate. HUVECs were reacted with peptides (0.15 nM) and VEGF (10 ng/ml) for 4 hours, and incubated with DAF-FM diacetate (5 μM) in a CO2 constant temperature incubator, and the amount of NO produced in the cells was measured under a confocal microscope.

aortic ring = experiment: Aortic ring sprouting assay (ex vivo); design: species or system Sprague-Dawley rat; settings: RLYE 0.3 nM, VEGF 20 ng/ml
Procedure: An aortic ring sprouting assay was performed by a method modified based on previous research. A 1-mm-thick aortic ring prepared from a Sprague-Dawley rat (7-week-old male) was placed in a 96-well plate coated with 120 μl of Matrigel, sealed with 50 μl of Matrigel, and incubated with RLYE (SEQ ID NO: 2) (0.3 nM) or VEGF (20 ng/ml) in a total of 200 μl of a serum-free medium. Blood vessels newly formed at day 6 were fixed, microvascular formation was observed under a phase-contrast microscope, and angiogenesis was quantified with Image Jsoftware available at NIH website, rsb.info.nih.gov/ij.

[3] = tested on: chick chorioallantoic membrane (CAM); experiment: Chick chorioallantoic membrane (CAM) analysis; format: in vivo; settings: RLYE 0.75 nM, VEGF 50 ng/ml
Procedure: For a chick chorioallantoic membrane (CAM) analysis, fertilized eggs were incubated for 3 days, and a window was made in the same manner as used in the previous research (18). The window (with a diameter of about 3 cm) was made by removing a shell and an inner layer of the shell, and the exposed part was sealed with cellophane tape. The eggs were stood upright at 37° C. in an incubator (with a humidity of 55 to 60%) and were incubated for 3 days. A Thermanox disc containing 10 μl of a salt-free solution containing RLYE (SEQ ID NO: 2) (0.75 nM) alone or in combination with VEGF (50 ng/ml) was gently placed on a CAM that had been incubated for 10 days. After 72-hour incubation, blood vessels formed above were stained by injecting 1 ml of a 10% intralipose (fat emulsion) solution right under the CAM. The stained blood vessels were photographed using a Nikon digital camera, and the number of blood vessels newly formed around the disc was counted.

[4] = tested on: VEGF-A-induced angiogenesis; experiment: Matrigel implantation, intravital fluorescence microscopy; format: in vivo, C57BL/6J mouse; settings: mouse, RLYE 1.5 nM, VEGF 100 ng
Procedure: Formation of new blood vessels was examined by intravital fluorescence microscopy. A C57BL/6J mouse was anesthetized, and then a titanium-made imaging window was installed between the skin and an abdominal wall by surgery. 100 μl of Matrigel containing RLYE (SEQ ID NO: 2) (1.5 nM) alone or in combination with VEGF (100 ng) was injected into an inner space between the skin and abdominal walls of the window. Four days later, 50 μl of dextran (MW 250 kDa) labeled with 25 mg/ml of FITC was injected into the caudal vein, and then formation of new blood vessels was observed under a Zeiss Axiovert 200M microscope (Carl Zeiss). A vascular length density of the FITC-labeled dextran-perfuse blood vessels per observation area (mm/mm2) was calculated.

FAK = experiment: Western blot, FAK phosphorylation in VEGF-A-stimulated HUVECs; format: cell-based, human; settings: HUVECs stimulated with VEGF-A
Procedure: Cells were lyzed in RIPA buffer, and 50 μg of proteins were isolated by SDS-PAGE and then transferred to a PVDF membrane. The membrane was reacted with an antibody with respect to a target protein for 2 hours. The membrane was washed twice and reacted with a horseradish peroxidase-conjugated antibody, and then an amount of the target proteins was assessed with an enhanced chemiluminescence system.

VEGFR-1 = biological target: T1, VEGFR-1 (Homo sapiens, UniProt P17948); experiment: VEGFR pull-down assay using biotin-labeled RLYE, VEGFR-1; format: binding; settings: HUVEC lysate
T1 construct: endogenous in cells; host or cells: HUVEC lysate
Procedure: (§1) HUVECs were lysed in a pull-down buffer [50 mM Tris-HCl (pH 8.0), 150 mM sodium chloride, 1.0% NP-40, 0.5% sodium deoxycholate and 0.1% SDS]. A lysate ([…] of proteins) was reacted with biotin-labeled RLYE (SEQ ID NO: 2) (0.15 or 1.5 nM) for 1 hour, and reacted with streptavidin-agarose beads ([…]) at 4° C. for 1 hour. RLYE (SEQ ID NO: 2)-binding proteins were isolated from the cell lysate through centrifugation, washed, and then boiled for 10 minutes. The bead-binding proteins were isolated by SDS-PAGE, and immunoblotting was performed with an antibody with respect to VEGFR-2 or VEGFR-1.

VEGFR-2 = VEGFR-2 (Homo sapiens, UniProt P35968); experiment: VEGFR pull-down assay using biotin-labeled RLYE, VEGFR-2; format: binding; design: endogenous in cells; host or cells: HUVEC; settings: HUVEC lysate
Procedure: as §1

Sequence of VEGFR-2 (P35968 20-1356): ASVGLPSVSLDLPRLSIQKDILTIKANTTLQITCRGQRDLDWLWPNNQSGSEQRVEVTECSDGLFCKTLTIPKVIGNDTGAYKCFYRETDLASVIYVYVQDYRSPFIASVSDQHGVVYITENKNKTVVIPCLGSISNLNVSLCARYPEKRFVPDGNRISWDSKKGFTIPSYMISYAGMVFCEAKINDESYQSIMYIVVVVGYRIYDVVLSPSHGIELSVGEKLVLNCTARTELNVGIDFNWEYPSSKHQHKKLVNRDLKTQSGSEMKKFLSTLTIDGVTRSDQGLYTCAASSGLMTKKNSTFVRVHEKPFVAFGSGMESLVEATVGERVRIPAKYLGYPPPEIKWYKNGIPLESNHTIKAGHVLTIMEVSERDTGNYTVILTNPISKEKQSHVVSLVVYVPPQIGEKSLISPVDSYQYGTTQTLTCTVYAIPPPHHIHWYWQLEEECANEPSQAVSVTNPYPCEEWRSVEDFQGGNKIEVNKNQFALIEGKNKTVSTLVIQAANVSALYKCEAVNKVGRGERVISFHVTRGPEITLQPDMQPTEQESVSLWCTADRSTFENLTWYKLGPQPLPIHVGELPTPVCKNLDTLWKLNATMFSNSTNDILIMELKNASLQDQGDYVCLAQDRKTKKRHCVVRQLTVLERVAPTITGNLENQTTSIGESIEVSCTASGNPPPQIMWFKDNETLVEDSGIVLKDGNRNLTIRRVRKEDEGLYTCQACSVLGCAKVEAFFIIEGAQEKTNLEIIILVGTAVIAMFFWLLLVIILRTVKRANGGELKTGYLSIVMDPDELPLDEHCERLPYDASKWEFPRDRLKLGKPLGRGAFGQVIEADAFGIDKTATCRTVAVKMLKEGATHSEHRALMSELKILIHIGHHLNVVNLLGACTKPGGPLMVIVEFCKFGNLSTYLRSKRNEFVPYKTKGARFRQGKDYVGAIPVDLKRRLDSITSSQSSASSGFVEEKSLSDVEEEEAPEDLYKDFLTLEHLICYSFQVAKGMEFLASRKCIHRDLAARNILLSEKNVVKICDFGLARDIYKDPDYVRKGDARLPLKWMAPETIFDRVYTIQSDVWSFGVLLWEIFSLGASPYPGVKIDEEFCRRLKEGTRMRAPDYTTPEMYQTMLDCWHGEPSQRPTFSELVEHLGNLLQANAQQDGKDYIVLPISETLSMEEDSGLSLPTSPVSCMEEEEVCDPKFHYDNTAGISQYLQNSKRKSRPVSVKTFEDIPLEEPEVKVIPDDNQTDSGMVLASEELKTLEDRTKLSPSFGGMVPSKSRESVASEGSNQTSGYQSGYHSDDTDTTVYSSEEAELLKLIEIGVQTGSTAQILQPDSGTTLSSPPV
T1 sequence (P17948 27-1338): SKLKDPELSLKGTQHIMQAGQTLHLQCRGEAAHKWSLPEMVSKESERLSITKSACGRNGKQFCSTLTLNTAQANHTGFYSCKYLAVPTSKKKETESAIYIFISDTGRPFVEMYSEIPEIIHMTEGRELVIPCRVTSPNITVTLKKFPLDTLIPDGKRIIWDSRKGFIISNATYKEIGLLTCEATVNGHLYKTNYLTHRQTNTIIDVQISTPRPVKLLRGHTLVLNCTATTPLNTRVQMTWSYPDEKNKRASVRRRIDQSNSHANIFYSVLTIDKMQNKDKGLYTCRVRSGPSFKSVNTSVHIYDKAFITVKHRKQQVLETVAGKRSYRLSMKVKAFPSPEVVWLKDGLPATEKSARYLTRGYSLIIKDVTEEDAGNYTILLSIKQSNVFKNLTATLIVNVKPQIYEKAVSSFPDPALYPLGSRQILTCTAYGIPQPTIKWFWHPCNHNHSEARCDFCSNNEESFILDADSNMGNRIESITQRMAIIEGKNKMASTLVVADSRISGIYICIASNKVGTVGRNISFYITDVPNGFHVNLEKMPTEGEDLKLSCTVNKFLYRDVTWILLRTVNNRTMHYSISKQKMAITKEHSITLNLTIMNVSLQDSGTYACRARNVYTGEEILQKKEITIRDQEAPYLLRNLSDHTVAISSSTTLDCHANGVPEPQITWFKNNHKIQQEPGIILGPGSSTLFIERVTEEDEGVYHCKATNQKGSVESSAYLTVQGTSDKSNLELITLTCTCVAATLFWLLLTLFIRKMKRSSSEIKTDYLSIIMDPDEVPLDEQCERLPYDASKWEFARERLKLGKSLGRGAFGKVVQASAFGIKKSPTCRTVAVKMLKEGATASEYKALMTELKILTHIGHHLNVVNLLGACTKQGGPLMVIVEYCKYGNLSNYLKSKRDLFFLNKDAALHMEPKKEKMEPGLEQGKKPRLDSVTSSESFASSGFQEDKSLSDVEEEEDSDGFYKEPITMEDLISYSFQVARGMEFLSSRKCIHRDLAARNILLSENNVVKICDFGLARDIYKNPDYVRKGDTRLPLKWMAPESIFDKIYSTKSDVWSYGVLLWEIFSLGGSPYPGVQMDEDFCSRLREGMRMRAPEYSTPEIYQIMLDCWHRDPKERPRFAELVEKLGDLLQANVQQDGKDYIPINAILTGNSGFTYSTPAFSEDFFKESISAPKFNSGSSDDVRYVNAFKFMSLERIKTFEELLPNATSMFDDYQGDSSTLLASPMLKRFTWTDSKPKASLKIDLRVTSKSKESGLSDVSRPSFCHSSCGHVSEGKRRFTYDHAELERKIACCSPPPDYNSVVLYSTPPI

- binding to VEGFR-1 (pull-down) (VEGFR-1): does not bind to VEGFR-1
- binding to VEGFR-2 (pull-down) (VEGFR-2): binds to VEGFR-2
SMILES: CC(C)C[C@H](NC(=O)[C@@H](N)CCCNC(=N)N)C(=O)N[C@@H](Cc1ccc(O)cc1)C(=O)N[C@@H](CCC(=O)O)C(=O)O [RLYE] (H-RLYE-OH; N-terminus and C-terminus assumed)
- inhibition of VEGF-induced HUVEC proliferation (HUVECs [1]; VEGF 10 ng/ml, [3H]-thymidine incorporation): effectively inhibited
- IC50 lower than that of the control KLYD (HUVEC proliferation) (HUVECs [1]; versus KLYD): 10 fold
- inhibition of VEGF-induced tube formation (HUVECs [2]; HUVECs, peptide 0.15 nM, VEGF 10 ng/ml): effectively regulated; also recorded: much higher inhibitory effect on the tube formation than KLYD; also recorded: effectively inhibited
- bFGF-induced tube formation of HUVECs (HUVECs [2]; bFGF stimulated): did not inhibit
- inhibition of VEGF-induced NO production (NO production in HUVECs): effectively blocked; also recorded: effectively inhibited; also recorded: higher inhibitory effect than the control KLYD
- VEGF-A-induced angiogenesis at the edge of the aortic ring (aortic ring): significantly inhibited
- VEGF-A-induced blood vessel density in CAM [3]: considerable reduction
- VEGF-A-induced angiogenesis in Matrigel implant [4]: effectively inhibited
- phosphorylation of FAK (FAK): inhibited
